According to publication PMC7177638 (International Journal of Molecular Sciences, 2020):

Columns and labels:
[1] = test system: HCT-15 human colon carcinoma cells; test: MTT cytotoxicity test, 72 h; type: cell-based; conditions: HCT-15, MTT
Description: (§1) The in vitro cytotoxic activities of compounds 1–6 were assayed on a panel of human cancer cell lines containing examples of pancreatic (PSN-1), colon (HCT-15 and LoVo), cervical (A431), and ovarian (2008) cancers. Cisplatin and oxaliplatin were used as reference compounds and were tested under the same experimental conditions.
(§2) Human colon (HCT-15 and LoVo) and pancreatic (PSN-1) carcinoma cell lines were obtained from the American Type Culture Collection (ATCC, RocKville, MD). The 2008 human ovarian cancer cells were kindly provided by Prof. G. Marverti (Dept. of Biomedical Science of Modena University, Italy). Human cervical carcinoma (A431) cells were kindly provided by Prof. F. Zunino (Division of Experimental Oncology B, Istituto Nazionale dei Tumori, Milan, Italy). […] Cell lines were maintained in the logarithmic phase at 37 °C in a 5% carbon dioxide atmosphere using RPMI-1640 or F-12 culture medium (Euroclone) containing 10% fetal calf serum (Euroclone, Milan, Italy), antibiotics (50 units per mL penicillin and 50 μg mL^−1 streptomycin), and 2 mM L-glutamine.
(§3) The growth inhibitory effect toward the tumor cell lines was evaluated by the MTT test. Briefly, 3-8·10^3 cells/well, depending upon the growth characteristics of the cell lines, were seeded in 96-well microplates in growth medium (100 µL) and then incubated at 37 °C in a 5% carbon dioxide atmosphere. After 24 h, the medium was removed and replaced with a fresh one containing the compound to be tested at the appropriate concentration. Triplicate cultures were established for each treatment. After 72 h, each well was treated with 10 µL of a 5 mg·mL^−1 MTT (3-(4,5-dimethylthiazol-2-yl)-2,5-diphenyltetrazolium bromide) saline solution and, after 5 h of incubation, 100 µL of a sodium dodecylsulfate (SDS) solution in HCl 0.01 M were added. Following an overnight incubation, the inhibition of cell growth induced by the tested complexes was evaluated by measuring the absorbance of each well at 570 nm using a Bio-Rad 680 microplate reader (Bio-Rad Laboratories S.r.l., Segrate (MI), Italy).

[2] = test system: A431 human cervical carcinoma cells; test: MTT cytotoxicity test, 72 h; type: cell-based
Description: as §1, §2, §3

[3] = test system: LoVo human colon carcinoma cells; test: MTT cytotoxicity test, 72 h; type: cell-based
Description: as §1, §2, §3

[4] = test system: 2008 human ovarian cancer cells; test: MTT cytotoxicity test, 72 h; type: cell-based; conditions: 2008, MTT
Description: as §1, §2, §3

[5] = test system: PSN-1 human pancreatic carcinoma cells; test: MTT cytotoxicity test, 72 h; type: cell-based; conditions: PSN-1, MTT
Description: as §1, §2, §3

[6] = Cyclic voltammetry, cathodic reduction potential in aqueous solution; type: physicochemical; conditions: values normalized vs. SCE; phosphate buffer pH 7.4, 5 mM NaCl, 5·10^−4 M complex, scan rate 0.020 V s^−1
Description: The electrochemical characterization of compounds 1–6, performed by using cyclic voltammetry (CV), was carried out with the aim of determining the cathodic reduction potentials in aqueous solution (Ep^c).
Cyclic voltammetry (CV) measurements were carried out with a potentiostat CHI 1230B (CH Instruments, Inc., Austin, TX, USA) in a standard three-electrode electrochemical cell. The working electrode was a glassy carbon (GC) electrode, the reference electrode was a KCl-saturated Ag/AgCl and the counter was a Pt sheet. The GC electrode was carefully polished with alumina powder, then rinsed with distilled water and dried, to obtain a reproducible surface for all the experiments. All the measurements, conducted in triplicate, were carried out in buffered aqueous solutions containing the Pt(IV) compound at a concentration of 5·10^−4 M in 10 mL phosphate buffer (PB, pH = 7.4, I = 0.1) and 5 mM NaCl as supporting electrolyte. A blank solution (without Pt(IV) complex) was also tested. All the peak potentials were measured with a scan rate of 0.020 V s^−1; the initial potential was chosen equal to the open-circuit potential and the scan direction was negative. All the CV plots were acquired after an equilibration time of 2 min in order to make the GC surface reproducible.

LoVo-OXP cancer cells = test: MTT cytotoxicity test, 72 h, oxaliplatin-resistant cells; type: cell-based, human; conditions: LoVo OXP
Source text: as §2, §3

[7] = Stability in solution followed by 1H-NMR (solvent-assisted photoreduction); type: physicochemical; conditions: DMSO-d6, room temperature, not shielded from light
Source text: (5.4–6.5 ppm). Most likely, compound 4 underwent a solvent-assisted reduction process favored by light, as previously observed for similar compounds such as cis,trans,cis-[PtCl2(OH)2(cis-1,4-DACH)] [19, 20]. […] This reduction/solvation could also be observed in other solvents, such as D2O and CD3OD.
As for compound 4, the reduction is probably fostered by the presence of axial chlorido ligand(s).
The ^13C NMR signals are influenced by the asymmetry of the complex with respect to the equatorial plane with two peaks at 125.4 and 125.2 ppm for the vinylic carbons, two signals at 60.2 and 59.3 ppm for the methynic carbons, and two signals at 33.1 and 32.6 ppm for the methylenic carbons (Figure S10).

[8] = test system: human A431 cancer cell spheroids; test: Cytotoxicity towards 3D spheroids, acid phosphatase (APH) assay; type: cell-based; conditions: A431 3D spheroids, 72 h, APH assay
Source text: The remarkable cell-killing effect observed against human A431 squamous cervical carcinoma two-dimensional (2D) cultured cells prompted us to evaluate the in vitro antitumor activity of compounds 1–6 on three-dimensional (3D) cell cultures. As opposed to 2D monolayer cultures, cells growing in 3D culture systems form spheroids that comprise cells in various stages. […] Such cellular heterogeneity resembles that of in vivo tumors, making 3D cell cultures more predictive than conventional 2D monolayer cultures in screening antitumor drugs.
Spheroid cultures were obtained by seeding 2.5 × 10^3 A431 cancer cells/well in a round bottom non-treated tissue culture 96 well-plate (Greiner Bio-one, Kremsmünster, Austria) in phenol red free RPMI-1640 medium (Sigma Chemical Co.) containing 10% fetal calf serum (FCS) and supplemented with 20% methyl cellulose stock solution.
An APH modified assay was used for determining cell viability in 3D spheroids, as previously described. IC50 values were calculated with a four parameter logistic (4-PL) model.

[9] = XPS Pt4f surface reduction of Pt(IV) to Pt(II) under X-ray irradiation; type: physicochemical; conditions: for % of Reduction: after 30 min irradiation, calculated from Pt(IV) abundances
Source text: The Pt(IV) complexes were also characterized by X-ray photoelectron spectroscopy (XPS) in order to obtain information on the surface chemical composition and on the platinum speciation. Despite the surface sensitivity of the technique (topmost 5–8 nm), the analysis on homogeneous samples provides useful information on the chemical environment of all detected elements. […] Two doublets were found: one is attributed to Pt(II) (BE Pt4f7/2 = 72.9 ± 0.2 eV and BE Pt4f5/2 = 76.2 ± 0.2 eV), while the second doublet is attributed to Pt(IV) (BE Pt4f7/2 = 75.6 ± 0.2 eV and BE Pt4f5/2 = 79.0 ± 0.2 eV).
The Pt(IV)/Pt(II) relative abundance varies from case to case; moreover, if the X-ray degradation is monitored after 30 min exposure to the X-ray beam, an increase of the Pt(II) relative abundance is observed (Figure 8b).
X-ray Photoelectron Spectroscopy (XPS) analyses were run on a PHI 5000 Versa Probe II Scanning XPS Microprobe spectrometer (ULVAC PHI Inc., Kanagawa, Japan). Measurements were carried out using a monochromatic Al Kα source (X-ray spot 200 μm) at a power of 50.3 W. Wide scan and detailed spectra (Pt4f, C1s, Cl2p, N1s, O1s) were acquired in Constant Analyzer Energy (CAE) mode with a pass energy of 117.40 and 29.35 eV, respectively. An electron gun was used for charge compensation (1.0 V, 20.0 μA). Due to the X-ray sensitivity of Pt(IV) complexes, the Pt4f spectral region was acquired first. X-ray degradation kinetics experiments were performed analyzing the same sample area after 30 min. Data processing was performed by using the MultiPak software v. 9.8.0.19.

LoVo OXP cells = conditions: cited from earlier work
[10] = test system: panel of human tumor cell lines (A431, 2008, HCT-15, LoVo, LoVo OXP, LoVo MDR); conditions: cited from earlier work
[11] = test system: panel of human cancer cell lines (PSN-1, HCT-15, LoVo, A431, 2008); test: MTT cytotoxicity, average over the panel of human cancer cell lines; type: cell-based; conditions: mean over the cell line panel, 72 h
Description: as §1
[17, 30] Thus, the pharmacological activity decreases in the order 3 >> 1 ≈ 2 ≈ 4 > 5 > 6.
as §3

[12] = test system: oxaliplatin-resistant colon LoVo-OXP cell line; set-up: method as in PMID 22788918; conditions: cited from earlier work
[13] = test system: cisplatin-resistant ovarian C13* cell line; set-up: method as in PMID 22788918; conditions: cited from earlier work
[14] = logPo/w by shake-flask method with ICP-MS Pt determination; type: physicochemical; conditions: n-octanol / 0.15 M KCl in water

NC1CC=CCC1N.O=C1[O][Pt]([Cl])([Cl])[O]C1=O (racemic) [Complex 4, cis,trans,cis-[Pt(OXA)Cl2(DACHEX)]]
IC50 [1]: 1170 ± 200 nM | IC50 [2]: 430 ± 200 nM | IC50 [3]: 390 ± 30 nM | IC50 [4]: 420 ± 100 nM | IC50 [5]: 3080 ± 1100 nM | Cathodic reduction potential Ep^c [6]: −0.72 V | IC50 (LoVo-OXP cancer cells): > 2000 nM | stability in solution (reduction to Pt(II) / solvation) [7]: quite unstable | IC50 [8]: 9900 ± 2600 nM | % of Reduction [9]: 67%

NC1CC=CCC1N.O=C1[O][Pt][O]C1=O (racemic) [[Pt(OXA)(DACHEX)]]
lipid droplets formation (LoVo OXP cells): induced lipid droplets formation | ability to overcome oxaliplatin resistance (LoVo vs LoVo-OXP) [10]: equally active | cytotoxic activity compared with cisplatin and oxaliplatin ([10]; panel of human tumor cell lines): better than that of cisplatin and comparable to or better than that of oxaliplatin

[NH2][Pt]([NH2])([Cl])[Cl] [CDDP, cisplatin, reference compound]
IC50 [1]: 15300 ± 2600 nM | IC50 [2]: 1430 ± 400 nM | IC50 [3]: 7600 ± 1500 nM | IC50 [4]: 2230 ± 100 nM | IC50 [5]: 16600 ± 4200 nM | IC50 [8]: 58300 ± 900 nM | IC50 [11]: 8600 nM

CC(=O)[O][Pt]1([O]C(C)=O)[O]C(=O)C(=O)[O]1.NC1CC=CCC1N [Complex 2, cis,trans,cis-[Pt(OXA)(AcO)2(DACHEX)]]
IC50 [1]: 1270 ± 500 nM | IC50 [2]: 550 ± 100 nM | IC50 [3]: 590 ± 100 nM | IC50 [4]: 330 ± 500 nM | IC50 [5]: 2850 ± 700 nM | Cathodic reduction potential Ep^c [6]: −1.03 V | IC50 (LoVo-OXP cancer cells): > 2000 nM | IC50 [8]: 3400 ± 900 nM | % of Reduction [9]: 65%

NC1CCC(N)CC1.[Cl][Pt+2][Cl] (stereo not drawn) [Kiteplatin, [PtCl2(cis-1,4-DACH)]]
activity against cell line [12]: active | activity against cell line [13]: active

O=C1[O][Pt]2([NH][C@@H]3CCCC[C@H]3[NH]2)[O]C1=O [OXP, oxaliplatin, reference compound]
IC50 [1]: 1150 ± 400 nM | IC50 [2]: 3800 ± 1300 nM | IC50 [3]: 1100 ± 600 nM | IC50 [4]: 1530 ± 900 nM | IC50 [5]: 7900 ± 3500 nM | IC50 (LoVo-OXP cancer cells): 14300 ± 2100 nM | IC50 [8]: 36300 ± 1200 nM | IC50 [11]: 3100 nM

cis,trans,cis-[Pt(OXA)(OH)2(DACHEX)] [Complex 1]
IC50 [1]: 440 ± 100 nM | IC50 [2]: 490 ± 200 nM | IC50 [3]: 840 ± 300 nM | IC50 [4]: 720 ± 100 nM | IC50 [5]: 3150 ± 800 nM | Cathodic reduction potential Ep^c [6]: −1.05 V | IC50 (LoVo-OXP cancer cells): > 2000 nM | IC50 [8]: 5800 ± 800 nM | logPo/w [14]: −3.05 | % Relative Abundance Pt(IV)/(II), After 30 min Irradiation ([9]; after 30 min X-ray irradiation): 48/52 | % of Reduction [9]: 44% | % Relative Abundance Pt(IV)/(II), As Irradiated ([9]; onset of the experiment): 86/14
